From patent publication US8921373B2, “Compounds having TRPV1 antagonistic activity and uses thereof” (Shionogi & Co., Ltd., priority 2010, dated 2014)

Columns and labels:
human recombinant TRPV1 [1] = biological target: T1, human recombinant TRPV1 (Homo sapiens (Human), UniProt Q8NER1); test: TRPV1 Capsaicin-Based Assay (Protocol 2, TRPV1/CHO cells, Fluo-4, FLIPR); assay type: cell-based; settings: TRPV1/CHO cells, capsaicin 100 nM final
Description: (§1) For Protocol 2, a Chinese Hamster Ovary cell line (CHO) that has been engineered to constitutively express human recombinant TRPV1 was used (TRPV1/CHO cells). The TRPV1/CHO cell line was generated as described below.
One day prior to assay, TRPV1/CHO cells were seeded in 96-well clear-bottom black plates (20,000 cells/well) in growth media. On the day of the experiment, the cells were washed with 0.2 mL 1× Hank's Balanced Salt Solution (Life Technologies) containing 1.6 mM CaCl2 and 20 mM HEPES, pH 7.4 (“wash buffer”). Subsequently, the cells were loaded by incubation in 0.1 mL of wash buffer containing Fluo-4 at 3 μM final concentration. After 1 hour, the cells were washed twice with 0.2 mL wash buffer and resuspended in 0.1 mL wash buffer. The plates were then transferred to a Fluorescence Imaging Plate Reader (Molecular Devices). Fluorescence intensity was monitored for 15 seconds to establish a baseline. Subsequently, test compounds diluted in assay buffer (1× Hank's Balanced Salt Solution containing 1 mM CaCl2 and 20 mM HEPES, pH 7.4) containing 1% DMSO were added to the cell plate and fluorescence was monitored for 2 minutes. […] Human TRPV1 was then activated by the addition of 50 μL capsaicin (100 nM final concentration) and plates incubated for an additional 3 min. Data were collected over the entire time course and analyzed using Excel and the curve-fitting formula GraphPad Prism.

human recombinant TRPV1 [2] = biological target: T1, human recombinant TRPV1; test: TRPV1 pH-Based Assay (Protocol 2, Ca2+ response in TRPV1/CHO cells, Fura-2); assay type: cell-based; settings: TRPV1/CHO cells, pH 5.0-5.1; read-out: IC50 value by the pH-Based Assay
Description: as §1
TRPV1/CHO cells were seeded in the 96-well clear-bottom black-wall plate (Nunc) at densities of 1-2×10^4 cells/well and grown in 100 μL of culture medium (alpha-MEM supplemented with 10% FBS, 20 mM HEPES, 1 mg/mL geneticin and 1% antibiotic-antimycotic mixed stock solution) for 1-2 days before the experiment.
(2) The 96-well plate was incubated at 37° C. for 45 min.
(3) The loading buffer was removed from each well. […] The wells were then refilled with 80 μL of measuring buffer.
(4) After an incubation at 4° C. for 15 min, the 96-well plate was transferred to FDSS-3000 (Hamamatsu Photonics, Japan).
(5) The Fura-2 fluorescent intensity was monitored at a wavelength of 340 nm and at 380 nm, respectively, at a rate of 0.5 Hz for a total of 240 seconds. After 16 time points (32 sec) of baseline detection, 20 μL of agonist solution was added to each well. The final volume was 100 μL/well.
(6) Fluorescence intensity ratio refers to the fluorescence intensity at 340 nm over the fluorescence intensity at 380 nm at a particular time point. The baseline was set as the average of the fluorescent intensity ratios for the first 16 time points before the addition of agonist solution. The maximum response was the highest fluorescent intensity ratio during the 60 time points following addition of agonist solution.
(7) Maximal signal ratios from each well were calculated as output data using the FDSS-3000 analysis program. Data were analyzed using Excel (Microsoft) and XLfit (idbs) software.
Two different agonist solutions with different H2SO4 concentrations were used for the pH assay (FIG. 3A). For one half of a 96-well plate one agonist solution was used, for the other half the other agonist solution. The agonist solutions were obtained by diluting sulfuric acid (H2SO4, 1M) with measuring buffer. The concentrations for the two agonist solutions were determined as described above in Section 2 of Protocol 2.
The sulfuric acid concentrations between the two agonist solutions differed by 0.5 mM. […] After 1:4 dilution of the agonist solutions, the final sulfuric acid concentration was 3.2 mM and 3.3 mM, respectively. The resulting pH value for the pH assay was 5.0 to 5.1.
Test compounds were dissolved in DMSO to yield 1 mM stock solutions. […] The thereby-obtained solutions were further diluted in measuring buffer (1:100) as 10× stock serial dilutions with a DMSO concentration of 1%. 10 μL of a 10× stock was added into each well at step 3.3.(4) of Protocol 2.
Steps (1) and (2) of this Assay were the same as steps 2.2.(1) and 2.2.(2) of Protocol 2, respectively.
(3) The cells were washed twice with 150 μL of measuring buffer (mentioned in 2.2.(3) of Protocol 2, no probenecid). The wells were subsequently refilled with 70 μL of measuring buffer.
(4) Either 10 μl of measuring buffer or 10 μL of 10× stock serial dilution of test compound (described in 3.2. above) were applied to each well. Usually, only one test compound was tested per 96-well plate. The number of replicates per 96-well plate for a particular antagonist at a particular concentration was 7×2 since two different sulfuric acid concentrations were used per 96-well plate (N=7×2) (FIG. 3).
Step (5) was the same as 2.2.(4) above.
(6) Fura-2 fluorescent intensity was monitored as described in 2.2.(5) above. After 16 time points of baseline detection, 20 μL of agonist solution (measuring buffer titrated with H2SO4 to yield pH 5.0-5.1 when mixed 1:4 with the measuring buffer containing test compound) was added to each well (final volume 100 μL/well).
Steps (7) and (8) were as described in 2.2.(6) and 2.2.(7) above, respectively.
(1) The pH values of the buffer in the wells of A1→H1 and A7→H7 (longitudinally; FIG. 3) were measured one by one using a portable pH meter.

[3] = compounds of the invention, read-out: TRPV1 IC50 Potency (Capsaicin-Based Assay), Compound IC50
[4] = read-out: IC50 value by the Capsaicin-Based Assay

T1 sequence (Q8NER1 whole entry): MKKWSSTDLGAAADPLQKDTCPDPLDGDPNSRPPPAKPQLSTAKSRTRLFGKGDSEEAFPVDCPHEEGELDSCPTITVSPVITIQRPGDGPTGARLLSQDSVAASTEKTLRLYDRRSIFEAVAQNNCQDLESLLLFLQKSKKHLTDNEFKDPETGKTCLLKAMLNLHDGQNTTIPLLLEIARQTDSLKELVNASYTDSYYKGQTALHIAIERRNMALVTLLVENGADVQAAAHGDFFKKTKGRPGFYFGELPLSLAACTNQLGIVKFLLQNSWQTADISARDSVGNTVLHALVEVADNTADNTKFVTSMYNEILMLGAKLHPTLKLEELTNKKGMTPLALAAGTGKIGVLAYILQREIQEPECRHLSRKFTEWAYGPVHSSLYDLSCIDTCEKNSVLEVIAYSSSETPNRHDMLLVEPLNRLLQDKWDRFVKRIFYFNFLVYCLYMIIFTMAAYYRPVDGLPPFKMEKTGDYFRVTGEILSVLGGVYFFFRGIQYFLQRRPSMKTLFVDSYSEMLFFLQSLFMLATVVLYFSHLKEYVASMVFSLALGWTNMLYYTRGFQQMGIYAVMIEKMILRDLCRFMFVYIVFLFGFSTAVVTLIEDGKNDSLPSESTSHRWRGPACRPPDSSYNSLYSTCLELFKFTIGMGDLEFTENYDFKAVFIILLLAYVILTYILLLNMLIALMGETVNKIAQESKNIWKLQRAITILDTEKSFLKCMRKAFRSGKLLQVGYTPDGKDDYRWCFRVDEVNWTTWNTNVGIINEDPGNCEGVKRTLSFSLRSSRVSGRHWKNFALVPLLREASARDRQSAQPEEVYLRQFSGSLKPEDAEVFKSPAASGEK

| SMILES | IC50 (human recombinant TRPV1 [1]; [3]) [nM] | IC50 (human recombinant TRPV1 [2]) [nM] | IC50 (human recombinant TRPV1 [1]; [4]) [nM] | IC50 (human recombinant TRPV1 [1]; comparative compounds, read-out: TRPV1 IC50 Potency (Capsaicin-Based Assay), Comparative compound IC50) [nM] |
| --- | --- | --- | --- | --- |
| O=C(Nc1nc2ccc(F)cc2s1)N1CCC(F)(c2ncc(C[C@H](O)CO)cc2Cl)CC1 | 116 | – | – | – |
| Cc1cc(NC(=O)N2CC=C(c3ncc(C[C@@H](O)CO)cc3Cl)CC2)ccc1OC(F)(F)F [AAS, (R)-4-(3-Chloro-5-(2,3-dihydroxypropyl)pyridin-2-yl)-N-(3-methyl-4-(trifluoromethoxy)phenyl)-5,6-dihydropyridine-1(2H)-carboxamide] | – | ≤ 50 | ≤ 50 | – |
| Cc1cc(NC(=O)N2CCC(F)(c3ncc(C[C@@H](O)CO)cc3C)CC2)ccc1C(F)(F)F [ACE, (R)-4-(5-(2,3-dihydroxypropyl)-3-methylpyridin-2-yl)-4-fluoro-N-(3-methyl-4-(trifluoromethyl)phenyl)piperidine-1-carboxamide] | – | ≤ 50 | ≤ 50 | – |
| Cc1cc(NC(=O)N2CCC(F)(c3ncc(C[C@@H](O)CO)cc3C)CC2)ccc1OC(F)(F)F [ACF, (R)-4-(5-(2,3-dihydroxypropyl)-3-methylpyridin-2-yl)-4-fluoro-N-(3-methyl-4-(trifluoromethoxy)phenyl)piperidine-1-carboxamide] | – | ≤ 50 | ≤ 50 | – |
| Cc1cc(NC(=O)N2CCC(F)(c3ncc(C[C@@H](O)CO)cc3Cl)CC2)ccc1C(F)(F)F [ACI, (R)-4-(3-Chloro-5-(2,3-dihydroxypropyl)pyridin-2-yl)-4-fluoro-N-(3-methyl-4-(trifluoromethyl)phenyl)piperidine-1-carboxamide] | – | ≤ 50 | ≤ 50 | – |
| Cc1cc(NC(=O)N2CCC(F)(c3ncc(C[C@@H](O)CO)cc3Cl)CC2)ccc1OC(F)(F)F [ACJ, (R)-4-(3-Chloro-5-(2,3-dihydroxypropyl)pyridin-2-yl)-4-fluoro-N-(3-methyl-4-(trifluoromethoxy)phenyl)piperidine-1-carboxamide] | – | ≤ 50 | ≤ 50 | – |
| Cc1cc(NC(=O)N2CCC(F)(c3ncc(C[C@H](O)CO)cc3C)CC2)ccc1OC(F)(F)F [ACM, (S)-4-(5-(2,3-dihydroxypropyl)-3-methylpyridin-2-yl)-4-fluoro-N-(3-methyl-4-(trifluoromethoxy)phenyl)piperidine-1-carboxamide] | – | ≤ 50 | ≤ 50 | – |
| Cc1cc(NC(=O)N2CCC(F)(c3ncc(C[C@H](O)CO)cc3C)CC2)ccc1C(F)(F)F [ACN, (S)-4-(5-(2,3-dihydroxypropyl)-3-methylpyridin-2-yl)-4-fluoro-N-(3-methyl-4-(trifluoromethyl)phenyl)piperidine-1-carboxamide] | – | ≤ 50 | ≤ 50 | – |
| Cc1cc(NC(=O)N2CCC(F)(c3ncc(C[C@@H](O)CO)cc3F)CC2)ccc1C(F)(F)F [ACO, (R)-4-(5-(2,3-dihydroxypropyl)-3-fluoropyridin-2-yl)-4-fluoro-N-(3-methyl-4-(trifluoromethyl)phenyl)piperidine-1-carboxamide] | – | ≤ 50 | ≤ 50 | – |
| Cc1cc(NC(=O)N2CCC(F)(c3ncc(C[C@H](O)CO)cc3Cl)CC2)ccc1C(F)(F)F [ACS, (S)-4-(3-Chloro-5-(2,3-dihydroxypropyl)pyridin-2-yl)-4-fluoro-N-(3-methyl-4-(trifluoromethyl)phenyl)piperidine-1-carboxamide] | – | ≤ 50 | ≤ 50 | – |
| Cc1cc(NC(=O)N2CCC(F)(c3ncc(C[C@H](O)CO)cc3Cl)CC2)ccc1OC(F)(F)F [ACT, (S)-4-(3-Chloro-5-(2,3-dihydroxypropyl)pyridin-2-yl)-4-fluoro-N-(3-methyl-4-(trifluoromethoxy)phenyl)piperidine-1-carboxamide] | – | ≤ 50 | ≤ 50 | – |
| C[C@@H]1CN(c2ncc(C[C@@H](O)CO)cc2Cl)CCN1C(=O)Nc1nc2ccc(F)cc2s1 [ACU, (R)-4-(3-chloro-5-((R)-2,3-dihydroxypropyl)pyridin-2-yl)-N-(6-fluorobenzo[d]thiazol-2-yl)-2-methylpiperazine-1-carboxamide] | – | – | ≤ 50 | – |
| Cc1cc(C[C@@H](O)CO)cnc1N1CCN(C(=O)Nc2nc3ccc(F)cc3s2)CC1 [ADA, (R)-4-(5-(2,3-dihydroxypropyl)-3-methylpyridin-2-yl)-N-(6-fluorobenzo[d]-thiazol-2-yl)piperazine-1-carboxamide] | – | ≤ 50 | ≤ 50 | – |
| C[C@@H]1CN(c2ncc(C[C@@H](O)CO)cc2F)CCN1C(=O)Nc1nc2ccc(F)cc2s1 [ADH, (R)-4-(5-[(R)-2,3-dihydroxypropyl)-3-fluoropyridin-2-yl)-N-(6-fluorobenzo[d]thiazol-2-yl]-2-methylpiperazine-1-carboxamide] | – | ≤ 50 | ≤ 50 | – |
| Cc1cc(C[C@@H](O)CO)cnc1N1CCN(C(=O)Nc2nc3ccc(Cl)cc3s2)[C@H](C)C1 [ADJ, (R)-N-(6-chlorobenzo[d]thiazol-2-yl)-4-{5-[(R)-2,3-dihydroxypropyl]-3-methylpyridin-2-yl}-2-methylpiperazine-1-carboxamide] | – | ≤ 50 | ≤ 50 | – |
| C[C@H]1CN(c2ncc(C[C@@H](O)CO)cc2Cl)CCN1C(=O)Nc1nc2ccc(F)cc2s1 [ADY] | – | ≤ 50 | ≤ 50 | – |
| Cc1ccc2nc(NC(=O)N3CCN(c4ncc(C[C@@H](O)CO)cc4Cl)C[C@@H]3C)sc2c1 [ADZ] | – | ≤ 50 | ≤ 50 | – |
| C[C@H]1CN(c2ncc(C[C@@H](O)CO)cc2Cl)CCN1C(=O)Nc1nc2ccccc2s1 [AEA] | – | ≤ 50 | ≤ 50 | – |
| C[C@H]1CN(c2ncc(C[C@H](O)CO)cc2Cl)CCN1C(=O)Nc1nc2ccc(F)cc2s1 [AEB] | – | ≤ 50 | ≤ 50 | – |
| Cc1ccc2nc(NC(=O)N3CCN(c4ncc(C[C@H](O)CO)cc4Cl)C[C@@H]3C)sc2c1 [AEC] | – | ≤ 50 | ≤ 50 | – |
| C[C@H]1CN(c2ncc(C[C@H](O)CO)cc2Cl)CCN1C(=O)Nc1nc2ccccc2s1 [AED] | – | ≤ 50 | ≤ 50 | – |
| Cc1cc(NC(=O)N2CCC(F)(c3ncc(C[C@H](O)CO)cc3F)CC2)ccc1OC(F)(F)F [drawing 496] | 46 | – | – | – |
| C[C@@H]1CN(c2ncc(C[C@@H](O)CO)cc2F)CCN1C(=O)Nc1nc2ccc(Cl)cc2s1 [drawing 500] | 8 | – | – | – |
| Cc1cc(NC(=O)N2CC=C(c3ncc(C[C@@H](O)CO)cc3Cl)CC2)ccc1C(F)(F)F [drawing 501] | 40 | – | – | – |
| Cc1cc(NC(=O)N2CCC(F)(c3ncccc3F)CC2)ccc1OC(F)(F)F [reference compound] | – | – | – | 100 |
